Patent publication US8846914B2, “Compositions to effect neuronal growth” (Neuralstem, Inc., priority 2003, dated 2014)
Read-outs that look alike come from different tables or passages of the source.

Experiments:
Type in all cases: cell-based
[1] = test system: Differentiating hippocampal human stem cells; experiment: Long-term treatment in vitro neurogenesis; conditions: for activity at 10 µM: Homo sapiens, 504 h, three weeks, 5× with 10 μM, compared to the control; for Further increase in neuron numbers over long-term treatment: FIG. 11, compared to one week of treatment
Protocol: FIG. 11 is a bar graph illustrating an example of in vitro neurogenesis profile of the compounds for a long-term treatment. Differentiating hippocampal human stem cells mere treated with vehicle alone or with the test compounds for three weeks. Increase in cell number was determined compared to the control. Shown are several examples that are effective in continued neurogenesis. Bars represent mean+/−SD from six wells.
In another in vitro assay, compounds of the fused imidazole, iminopyrimidine, nicotinamide, aminomethyl phenoxypiperidine and aryloxypiperidine types are evaluated for their effect on the differentiation of the culture-born cells to mature neurons. More particularly, multipotent human hippocampal stem cells are treated in three doses over a one-week period in N2b media and in the presence of an agent of the type mentioned above. The cells are then fed twice weekly for approximately two more weeks in N2b or Neuralbasal+B27 Media (Gibco) and then cells are fixed using 4% paraformaldehyde. Cells are washed 3× with PBS (pH 7.4) and then stained using a nuclear stain (Hoechst or DAPI) and a mature neuronal marker, MAP-2ab (AP-20) antibody. A secondary antibody, Alexa Fluor 488 labeled goat anti-mouse IgG, is used to identify by fluorescent labeling the mature neurons. The fluorescent intensity and number of cells labeled in a multi-plate format can be measured using for instance a Array Scan II (Cellomics) or similar instrumentation.
Effects of the long-term NSI compound treatment on human hippocampal stem cells in the absence of mitogen is illustrated in FIG. 11. In FIG. 11, differentiating hippocampal human stem cells are treated with vehicle alone or with the test compounds for three weeks. Increase in cell number was determined compared to the control. Bars represent mean+/−SD from six wells. […] Several examples of NSI compounds are shown to be effective in continued neurogenesis. […] These agents comprise a class of compounds, aminopyrimidines, that, as shown previously, inhibited apoptosis. Accordingly, the aminopyrimidine class of compounds appear ideally suited for neurodegenerative long-term diseases including Alzheimer's disease and aging. Neurogenic agents that are neuroprotective like the sixteen compounds identified above might also be effective therapeutics for other neurodegenerative diseases in mammals including, but not limited to, stroke, traumatic brain injury, Parkinson's disease, and mild cognitive impairment.

[2] = test system: human hippocampal stem cells; experiment: Cell proliferation, Alamar Blue staining of live cells; conditions: seven days of compound treatment; relative to vehicle control
Protocol: FIG. 1 is a bar graph illustrating an example of a proliferation profile of compounds selected from primary screening. Proliferation is measured after compound treatment for seven days by Alamar Blue staining of live cells per well. Shown are relative values over the vehicle control.
Neural stem cells and progenitor cells differentiate spontaneously in the absence of a mitogen; therefore, undifferentiated mitotic cells are harvested by enzyme treatment to remove residual mitogen, such as basic fibroblast growth factor (bFGF) used in expansion and proliferation of the cells. In one embodiment of the present invention, undifferentiated human hippocampal stem cells (e.g., HH580)/progenitor cells are harvested by enzyme treatment.
The collected cells are seeded for attachment of the cells such as standard 96-well or 384-well plates, pre-coated with extracellular matrix proteins, such as poly-D-lysine and fibronectin (e.g., Biocoat PDL, Fisher). The initial seeding density can be within the range of about 2,000-125,000 cells per well of a 96-well plate. The preferred density, however, is 40,000 cells per well of a 96-well plate which has been optimized for best signal-to-noise ratio as described in pending U.S. patent application Ser. No. 10/728,652. Cell density that is too low retards the initiation of differentiation and results in poor plating efficiency which interferes with the assay. Cell density that is too high leads to inhibition of neurogenesis due to cell-to-cell interaction and paracrine factors which also interfere with the assay. […] For example, for a 384-well plate which has approximately one-fourth of the surface area of a 96-well plate, the initial seeding density should be decreased by one-fourth accordingly.
The cells are passaged and grown for seven days in 15 cm plates in full growth medium according to Neuralstem protocol with 50% of the media changed every other day. Following centrifugation, the call pellet is re-suspended in N2b medium and enough N2b medium is added to the cell suspension to achieve a concentration of […]. The N2b seeding media includes a standard serum-free, growth factor-free, basal media without phenol red that supports healthy neuronal/glial survival. Fibronectin and PBS is completely removed by aspiration from wells of fibronectin-coated 96-well plate(s). 100 μl of N2b medium with or without 2× concentration of screening agents or compounds to be tested are added to each well. Subsequently, 100 μl of the cell suspension is added to each well at a density of 40,000 cells per well. The cell suspension is incubated for two days at 37° C. in the presence of 5% CO2.
On Days 2, 4, and 6 of post-plating, incremental additions of the compounds are made to each well at appropriate concentrations. Therefore, after two days, 100 μl of N2b medium is removed from the wells, and 100 μl of the N2b medium is added. Likewise, on days four and six, 100 μl of N2b medium is removed from the wells and 100 μl of the N2b medium is added, and the cell suspension is again incubated at 37° C. in the presence of 5% CO2.
On day seven, the final day of the culture, a fluorescent dye such as Alamar Blue dye is added to each well. Alamar Blue dye detects metabolic respiration and is a reflection of total cellular activity indicating changes in cell number of neurons. In this regard, 20 μl of Alamar Blue (Biosource International DAL 1025) is added to each well and incubated for two hours at 37° C. in the presence of 5% CO2.
As a preliminary detection of positive activities, the overall immunostaining intensity in each well is read by a fluorescence plate reader. For instance, the fluorescence of the oxidized dye in each well is read by a fluorescent plate reader such as the Molecular Devices Fluorometric Plate Reader. The reader is set on the Read Mode End Point setting at an excitation of 530 nm, an emission of 590 nm, and a cutoff 570 nm. […]

[3] = test system: Differentiating human hippocampal stem cells; experiment: Neurogenesis dose-response profile; conditions: Homo sapiens, Neuron, 168 h; for activity at 1 µM: @1000 nM; for EC50: seven days, 100 pM to 100 μM; for activity at 30 µM: @30000 nM; for activity at 0.3 µM: @300 nM; for activity at 10 µM: @10000 nM; for activity at 3 µM: @3000 nM
Protocol: FIG. 4 is a line graph illustrating an example of a neurogenesis dose-response profile of selected compounds. Differentiating human hippocampal stem cells were treated for seven days with varying concentrations of “primary hits”. Subsequently, the cells were fixed, stained with anti-beta tubulin antibody, and positive cells were quantified by Array Scan II. Shown are the number of neurons after each treatment normalized against the no-compound control.
In another in vitro assay, compounds are tested as above at varying concentrations to obtain a dose-response curve and EC50 values (effective concentration of the compound which produces 50% of the maximum possible response for that compound).
Primary dose-response profiles and secondary functional assays are used to further eliminate compounds from the primary screen based on a lack of dose-dependent effect on neurogenesis, indicated by lack of linearity of dose-response, and in vitro neurotoxicity. The dose-response curve measures neurogenesis over a concentration range of 100 pM to 100 μM. […] Table II contains the summary of EC50 of each compound tested.

[4] = read-out: Long Term Treatment #Neur
[5] = read-out: Long Term Treatment Neur Ratio
[6] = read-out: Long Term Treatment Prolif
[7] = normalized against no-compound control, read-out: Neuron# Eff

SMILES | activity at 10 µM [1, 4] | activity at 10 µM [1, 5] | activity at 10 µM [1, 6] | % Prolif (Alamar) [2] | activity at 1 µM [3, 7] | activity at 1 µM ([3]; read-out: % Neuron Ratio Eff) | EC50 [3] | activity at 0.01 µM ([3]; @10 nM, read-out: % Neuron Ratio Eff) | activity at 30 µM [3, 7] | activity at 30 µM ([3]; read-out: % Neuron Ratio Eff) | activity at 0.001 µM ([3]; @1 nM, read-out: % Neuron Ratio Eff) | activity at 0.3 µM [3, 7] | activity at 10 µM [3, 7] | activity at 3 µM [3, 7] | activity at 10 µM ([3]; read-out: % Neuron Ratio Eff) | activity at 0.1 µM ([3]; @100 nM, read-out: % Neuron Ratio Eff) | activity at 3 µM ([3]; read-out: % Neuron Ratio Eff) | Further increase in neuron numbers over long-term treatment [1] | activity at 0.3 µM ([3]; read-out: % Neuron Ratio Eff)
CCCCNc1c(C2CCN(C(=O)c3ccc(C#N)cc3)CC2)nc2ccccn12 [NSI-149] | 171 ± 19% | 143 ± 11% | 89 ± 13% | 216 ± 28% | 124% | 111% | < 0.1 nM | – | – | – | – | – | – | – | – | – | – | – | –
CS(=O)(=O)N1CCCCC1C(=O)NCc1ccc(Nc2c(C3CC3)nc3ccccn23)cc1 (centres unmarked) [NSI-127] | 135 ± 21% | 131 ± 15% | 103 ± 8% | 181 ± 14% | – | – | 1.5 nM | 114% | 137% | – | – | – | – | – | – | – | – | – | –
O=C(NC1CCN(Cc2ccccc2)CC1)c1cccnc1N1CCNCC1 [NSI-143] | 102 ± 14% | 103 ± 12% | 153 ± 33% | 97 ± 16% | – | – | 4.8 nM | – | 115% | 112% | – | – | – | – | – | – | – | – | –
O=C(c1cccnc1N1CCNCC1)N1CCN(Cc2ccncc2)CC1 [NSI-142] | 146 ± 34% | 120 ± 21% | 105 ± 26% | 115 ± 13% | – | – | 0.001 nM | – | 175% | 123% | – | – | – | – | – | – | – | – | –
CCN(CCNC(=O)c1cccnc1NCCC(C)C)Cc1cccnc1 [NSI-190] | 121 ± 19% | 100 ± 12% | 98 ± 11% | 76 ± 14% | – | – | 13 nM | – | – | – | 128% | 165% | – | – | – | – | – | – | –
CC(C)(C)OC(=O)NCCNC(=O)c1cccnc1NCC1CCCCC1 [NSI-157] | 139 ± 43% | 107 ± 22% | 146 ± 19% | 218 ± 140% | – | – | > 1000 nM | – | – | 146% | – | – | 113% | – | – | – | – | – | –
CS(=O)(=O)N(CC(=O)NCc1nc2ccccn2c1NCc1ccccc1)c1ccccc1 [NSI-185] | 155 ± 30% | 105 ± 19% | 83 ± 25% | 73 ± 26% | – | – | 786 nM | – | – | 112% | – | – | – | 132% | – | – | – | – | –
O=C(NCc1nc2ccccn2c1NCC1CCCO1)Oc1ccccc1 (centres unmarked) [NSI-182] | 121 ± 13% | 111 ± 13% | 95 ± 6% | 74 ± 8% | – | – | 0.1 nM | – | – | – | – | 123% | – | – | 112% | – | – | – | –
CC(C)CCNc1ncccc1C(=O)N1CCN(Cc2ccccc2)CC1 [NSI-189] | 110 ± 26% | 96 ± 19% | 144 ± 17% | 70 ± 21% | – | – | 253 nM | – | 165% | 141% | – | – | – | – | – | – | – | – | –
CCCCNc1c(C2CCN(C(=O)CN(CC(C)C)S(C)(=O)=O)CC2)nc2cnccn12 [NSI-106] | 137 ± 8% | 120 ± 5% | 92 ± 3% | 211 ± 48% | – | – | 0.07 nM | – | – | – | – | 157% | – | – | – | 165% | – | – | –
CCCNc1ncc(C(N)=O)c(NC2CCCC2)n1 [NSI-137] | 139 ± 35% | 98 ± 18% | 111 ± 10% | 108 ± 28% | – | – | > 1000 nM | – | 145% | 126% | – | – | – | – | – | – | – | – | –
NC(=O)C1CCCN1C(=O)c1cccnc1NCC1CCCCC1 (centres unmarked) [NSI-158] | 141 ± 24% | 114 ± 14% | 99 ± 6% | 236 ± 79% | – | – | 0.2 nM | – | – | – | – | 145% | – | – | – | – | 106% | – | –
C=CCNC(=O)c1cccnc1NCc1ccccc1OC [NSI-150] | 120 ± 10% | 105 ± 7% | 110 ± 25% | 177 ± 44% | – | – | 85 nM | – | – | 112% | – | – | – | 227% | – | – | – | – | –
COc1ccc(CCNc2ncc(C(N)=O)c(NC3CC3)n2)cc1OC [NSI-130] | 128 ± 30% | 92 ± 12% | 115 ± 11% | 92 ± 33% | – | – | 2160 nM | – | – | 144% | – | – | 202% | – | – | – | – | effective in stimulating further increases in neuron numbers | –
NC(=O)c1cnc(NCc2ccc(Cl)cc2)nc1NCC1CCCCC1 [NSI-144] | 170 ± 46% | 123 ± 12% | 97 ± 21% | 149 ± 15% | – | – | 13.5 nM | – | – | – | – | 186% | – | – | – | – | – | effective in stimulating further increases in neuron numbers | 138%
